In brackets after ≈: the same amount, converted by molar mass. Entries after “also recorded” stand apart in the source; their conditions may differ. Positions of bridges follow the written chain, without caps; N, C: chain ends. Non-standard residues stand in square brackets, D forms with d. Residues, ends and D or L forms follow the SMILES beside them. *: point of attachment. FITC = O=C1OC2(c3ccc(O)cc3Oc3cc(O)ccc32)c2ccc(NC(=S)*)cc21; Myristoyl = CCCCCCCCCCCCCC(=O)*; dOrn = NCCC[C@@H](N)C(=O)O; GABA = NCCCC(=O)O
Tests used:
[1] = test system: human immunodeficiency virus (HIV); experiment: Antiviral activity against HIV in HIV-infected MT-4 cells (MTT method); format: cell-based; details: for SI: rough ratio CC50/EC50
Procedure: (§1) HIV-infected MT-4 cells (2.5×10^4 cells/well, multiplicity of infection (MOI): 0.001) immediately after infection were added together with the test substance with various changes of the concentration to a 96-well microtitre plate. After incubation at 37° C. for 5 days in a CO2 incubator, the number of survivor cells was measured by the MTT method [Pauwels et al.; J. Virol. […] On the other hand, in order to know the cytotoxicity of the test substance on the MT-4 cells, virus-non-infected cells were incubated, likewise as above, together with the test compound with various changes of the concentration. […] Further, the rough ratio of CC50 to EC50, (CC50 /EC50) is expressed as an effective ratio (SI).

MT-4 cells = experiment: Cytotoxicity on virus-non-infected MT-4 cells (MTT method); format: cell-based
Procedure: as §1

[2] = Table 5, method of Example 2, HIV-infected MT-4 cells
[3] = Table 5, method of Example 2, virus-non-infected MT-4 cells
[4] = Table 4, HIV-infected MT-4 cells, MOI 0.001, 5 days
[5] = Table 4, virus-non-infected MT-4 cells, 5 days

SMILES	SI (CC50/EC50) ([1]; Table 5)	EC50 [1, 2] [µg/mL]	CC50 (MT-4 cells; [3]) [µg/mL]	EC50 [1, 4] [µg/mL]	SI ([1]; Table 4)	anti-HIV activity compared with reference compound (in words) ([1]; text comment on the anti-HIV results)	CC50 (MT-4 cells; [5]) [µg/mL]	cytotoxicity compared with reference compound (in words) (MT-4 cells; text comment on Table 4)
N=C(N)NCCC[C@H](NC(=O)[C@@H]1CSSC[C@H](NC(=O)[C@H](Cc2c[nH]c3ccccc23)NC(=O)[C@H](CCCNC(=N)N)NC(=O)[C@@H](N)CCCNC(=N)N)C(=O)N[C@@H](Cc2ccc(O)cc2)C(=O)N[C@@H](CCCNC(=N)N)C(=O)N[C@@H](CCCCN)C(=O)N[C@H](CCCCNC(=O)CCCN)C(=O)N2CCC[C@H]2C(=O)N[C@@H](Cc2ccc(O)cc2)C(=O)N[C@@H](CCCNC(=N)N)C(=O)N[C@@H](CCCCN)C(=O)N1)C(N)=O (H-RRWCYRK[dK](GABA)PYRKCR-NH2; disulfide 4-13)	11095	0.0165 (≈ 0.00793 µM)	138.07 (≈ 66.3 µM)					
N=C(N)NCCC[C@H](NC(=O)[C@@H]1CSSC[C@H](NC(=O)[C@H](Cc2c[nH]c3ccccc23)NC(=O)[C@H](CCCNC(=N)N)NC(=O)[C@@H](N)CCCNC(=N)N)C(=O)N[C@@H](Cc2ccc(O)cc2)C(=O)N[C@@H](CCCNC(=N)N)C(=O)N[C@@H](CCCCN)C(=O)N[C@H](CCCCNC(=O)CN)C(=O)N2CCC[C@H]2C(=O)N[C@@H](Cc2ccc(O)cc2)C(=O)N[C@@H](CCCNC(=N)N)C(=O)N[C@@H](CCCCN)C(=O)N1)C(N)=O (H-RRWCYRK[dK](Gly)PYRKCR-NH2; disulfide 4-13)		0.03 (≈ 0.0146 µM)	44.26 (≈ 21.6 µM)					
N=C(N)NCCC[C@H](NC(=O)[C@@H]1CSSC[C@H](NC(=O)[C@H](Cc2c[nH]c3ccccc23)NC(=O)[C@H](CCCNC(=N)N)NC(=O)[C@@H](N)CCCNC(=N)N)C(=O)N[C@@H](Cc2ccc(O)cc2)C(=O)N[C@@H](CCCNC(=N)N)C(=O)N[C@@H](CCCCN)C(=O)N[C@H](CCCCN)C(=O)N2CCC[C@H]2C(=O)N[C@@H](Cc2ccc(O)cc2)C(=O)N[C@@H](CCCNC(=N)N)C(=O)N[C@@H](CCCCN)C(=O)N1)C(N)=O [Polypeptide (1), Arg--Arg--Trp--Cys--Tyr--Arg--Lys--DLys--Pro--Tyr--Arg--Lys--Cys--Arg--NH2] (H-RRWCYRK[dK]PYRKCR-NH2; disulfide 4-13)	3352	0.0195 (≈ 0.00977 µM)	65.37 (≈ 32.7 µM)	0.0034 (≈ 0.0017 µM)	14,647	one-third the concentration of T-22; also recorded: slightly higher	49.8 (≈ 24.9 µM)	the same cytotoxicity as that of T-22; also recorded: extremely low cytotoxicity
N=C(N)NCCC[C@H](NC(=O)[C@@H]1CSSC[C@H](NC(=O)[C@H](Cc2c[nH]c3ccccc23)NC(=O)[C@H](CCCNC(=N)N)NC(=O)[C@@H](N)CCCNC(=N)N)C(=O)N[C@@H](Cc2ccc(O)cc2)C(=O)N[C@@H](CCCNC(=N)N)C(=O)N[C@@H](CCCCN)C(=O)N[C@@H](CCCCN)C(=O)NCC(=O)N[C@@H](Cc2ccc(O)cc2)C(=O)N[C@@H](CCCNC(=N)N)C(=O)N[C@@H](CCCCN)C(=O)N1)C(N)=O [Polypeptide (3), Arg--Arg --Trp--Cys--Tyr--Arg--Lys --Lys--Gly --Tyr--Arg--Lys--Cys--Arg--NH2] (H-RRWCYRKKGYRKCR-NH2; disulfide 4-13)	3477	0.057 (≈ 0.0291 µM)	198.18 (≈ 101 µM)					
N=C(N)NCCC[C@H](NC(=O)[C@@H]1CSSC[C@H](NC(=O)[C@H](Cc2c[nH]c3ccccc23)NC(=O)[C@H](CCCNC(=N)N)NC(=O)[C@@H](N)CCCNC(=N)N)C(=O)N[C@@H](Cc2ccc(O)cc2)C(=O)N[C@@H](CCCNC(=N)N)C(=O)N[C@@H](CCCCN)C(=O)N2CCC[C@H]2C(=O)N[C@H](CCCCN)C(=O)N[C@@H](Cc2ccc(O)cc2)C(=O)N[C@@H](CCCNC(=N)N)C(=O)N[C@@H](CCCCN)C(=O)N1)C(N)=O [Polypeptide (5), Arg--Arg --Trp--Cys--Tyr--Arg--Lys --Pro--DLys --Tyr--Arg--Lys--Cys--Arg--NH2] (H-RRWCYRKP[dK]YRKCR-NH2; disulfide 4-13)	1321	0.076 (≈ 0.0381 µM)	101.20 (≈ 50.7 µM)					
N=C(N)NCCC[C@H](NC(=O)[C@@H]1CSSC[C@H](NC(=O)[C@H](Cc2c[nH]c3ccccc23)NC(=O)[C@H](CCCNC(=N)N)NC(=O)[C@@H](N)CCCNC(=N)N)C(=O)N[C@@H](Cc2ccc(O)cc2)C(=O)N[C@@H](CCCNC(=N)N)C(=O)N[C@@H](CCCCN)C(=O)N[C@H](CCCN)C(=O)N2CCC[C@H]2C(=O)N[C@@H](Cc2ccc(O)cc2)C(=O)N[C@@H](CCCNC(=N)N)C(=O)N[C@@H](CCCCN)C(=O)N1)C(N)=O [Polypeptide (6), Arg--Arg --Trp--Cys--Tyr--Arg--Lys --DOrn--Pro --Tyr--Arg--Lys--Cys--Arg--NH2] (H-RRWCYRK[dOrn]PYRKCR-NH2; disulfide 4-13)	2728		55.93 (≈ 28.2 µM)					
CC(=O)N[C@@H](CCCNC(=N)N)C(=O)N[C@@H](CCCNC(=N)N)C(=O)N[C@@H](Cc1c[nH]c2ccccc12)C(=O)N[C@H]1CSSC[C@@H](C(=O)N[C@@H](CCCNC(=N)N)C(N)=O)NC(=O)[C@H](CCCCN)NC(=O)[C@H](CCCNC(=N)N)NC(=O)[C@H](Cc2ccc(O)cc2)NC(=O)[C@@H]2CCCN2C(=O)[C@@H](CCCCN)NC(=O)[C@H](CCCCN)NC(=O)[C@H](CCCNC(=N)N)NC(=O)[C@H](Cc2ccc(O)cc2)NC1=O [Polypeptide (14), Ac--Arg--Arg --Trp--Cys--Tyr--Arg--Lys --DLys--Pro --Tyr--Arg--Lys--Cys--Arg--NH2] (Ac-RRWCYRK[dK]PYRKCR-NH2; disulfide 4-13)	3256	0.024 (≈ 0.0118 µM)	78.14 (≈ 38.3 µM)					
CCCCCCCCCCCCCC(=O)N[C@@H](CCCNC(=N)N)C(=O)N[C@@H](CCCNC(=N)N)C(=O)N[C@@H](Cc1c[nH]c2ccccc12)C(=O)N[C@H]1CSSC[C@@H](C(=O)N[C@@H](CCCNC(=N)N)C(N)=O)NC(=O)[C@H](CCCCN)NC(=O)[C@H](CCCNC(=N)N)NC(=O)[C@H](Cc2ccc(O)cc2)NC(=O)[C@@H]2CCCN2C(=O)[C@@H](CCCCN)NC(=O)[C@H](CCCCN)NC(=O)[C@H](CCCNC(=N)N)NC(=O)[C@H](Cc2ccc(O)cc2)NC1=O [Polypeptide (17), Myr--Arg--Arg --Trp--Cys--Tyr--Arg--Lys --DLys--Pro --Tyr--Arg--Lys--Cys--Arg--NH2] (Myristoyl-RRWCYRK[dK]PYRKCR-NH2; disulfide 4-13)	1838	0.055 (≈ 0.0249 µM)	106.60 (≈ 48.3 µM)					
N=C(N)NCCC[C@H](NC(=O)[C@@H]1CSSC[C@H](NC(=O)[C@H](Cc2c[nH]c3ccccc23)NC(=O)[C@H](CCCNC(=N)N)NC(=O)[C@H](CCCNC(=N)N)NC(=S)Nc2ccc3c(c2)C(=O)OC32c3ccc(O)cc3Oc3cc(O)ccc32)C(=O)N[C@@H](Cc2ccc(O)cc2)C(=O)N[C@@H](CCCNC(=N)N)C(=O)N[C@@H](CCCCN)C(=O)N[C@H](CCCCN)C(=O)N2CCC[C@H]2C(=O)N[C@@H](Cc2ccc(O)cc2)C(=O)N[C@@H](CCCNC(=N)N)C(=O)N[C@@H](CCCCN)C(=O)N1)C(N)=O [Polypeptide (19), FTC--Arg--Arg --Trp--Cys--Tyr--Arg--Lys --DLys--Pro --Tyr--Arg--Lys--Cys--Arg--NH2] ({FITC}-RRWCYRK[dK]PYRKCR-NH2; disulfide 4-13)	39285		38.47 (≈ 16.1 µM)					
N=C(N)NCCC[C@H](NC(=O)[C@@H]1CSSC[C@H](NC(=O)[C@H](Cc2c[nH]c3ccccc23)NC(=O)[C@H](CCCNC(=N)N)NC(=O)[C@@H](N)CCCNC(=N)N)C(=O)N[C@@H](Cc2ccc(O)cc2)C(=O)N[C@@H](CCCNC(=N)N)C(=O)N[C@@H](CCCCN)C(=O)N[C@H]2CSSC[C@H](NC(=O)[C@H](Cc3ccc(O)cc3)NC(=O)CNC(=O)[C@H](CCCCN)NC(=O)[C@H](Cc3ccc(O)cc3)NC2=O)C(=O)N[C@@H](Cc2ccc(O)cc2)C(=O)N[C@@H](CCCNC(=N)N)C(=O)N[C@@H](CCCCN)C(=O)N1)C(N)=O [Polypeptide T-22, reference compound] (H-RRWCYRKCYKGYCYRKCR-NH2; disulfide 4-17, 8-13 (inferred); N-terminus assumed)		0.017 (≈ 0.00684 µM)	49.4 (≈ 19.9 µM)	0.0099 (≈ 0.00398 µM)	5,465		54.1 (≈ 21.8 µM)	
